From ChEMBL document CHEMBL1142050, “A two-state homology model of the hERG K+ channel: application to ligand binding” (Bioorg Med Chem Lett, 2005)

How the values were obtained:
[1] = biological target: T1, Voltage-gated inwardly rectifying potassium channel KCNH2 (Homo sapiens, UniProt Q12809); experiment: Inhibition of human voltage-gated potassium channel subunit Kv11.1 (ERG K+ channel) in open state; type: functional
[2] = biological target: T1, Voltage-gated inwardly rectifying potassium channel KCNH2; experiment: Inhibition of partially open human voltage-gated potassium channel subunit Kv11.1 (ERG K+ channel)

T1 sequence (Q12809 whole entry): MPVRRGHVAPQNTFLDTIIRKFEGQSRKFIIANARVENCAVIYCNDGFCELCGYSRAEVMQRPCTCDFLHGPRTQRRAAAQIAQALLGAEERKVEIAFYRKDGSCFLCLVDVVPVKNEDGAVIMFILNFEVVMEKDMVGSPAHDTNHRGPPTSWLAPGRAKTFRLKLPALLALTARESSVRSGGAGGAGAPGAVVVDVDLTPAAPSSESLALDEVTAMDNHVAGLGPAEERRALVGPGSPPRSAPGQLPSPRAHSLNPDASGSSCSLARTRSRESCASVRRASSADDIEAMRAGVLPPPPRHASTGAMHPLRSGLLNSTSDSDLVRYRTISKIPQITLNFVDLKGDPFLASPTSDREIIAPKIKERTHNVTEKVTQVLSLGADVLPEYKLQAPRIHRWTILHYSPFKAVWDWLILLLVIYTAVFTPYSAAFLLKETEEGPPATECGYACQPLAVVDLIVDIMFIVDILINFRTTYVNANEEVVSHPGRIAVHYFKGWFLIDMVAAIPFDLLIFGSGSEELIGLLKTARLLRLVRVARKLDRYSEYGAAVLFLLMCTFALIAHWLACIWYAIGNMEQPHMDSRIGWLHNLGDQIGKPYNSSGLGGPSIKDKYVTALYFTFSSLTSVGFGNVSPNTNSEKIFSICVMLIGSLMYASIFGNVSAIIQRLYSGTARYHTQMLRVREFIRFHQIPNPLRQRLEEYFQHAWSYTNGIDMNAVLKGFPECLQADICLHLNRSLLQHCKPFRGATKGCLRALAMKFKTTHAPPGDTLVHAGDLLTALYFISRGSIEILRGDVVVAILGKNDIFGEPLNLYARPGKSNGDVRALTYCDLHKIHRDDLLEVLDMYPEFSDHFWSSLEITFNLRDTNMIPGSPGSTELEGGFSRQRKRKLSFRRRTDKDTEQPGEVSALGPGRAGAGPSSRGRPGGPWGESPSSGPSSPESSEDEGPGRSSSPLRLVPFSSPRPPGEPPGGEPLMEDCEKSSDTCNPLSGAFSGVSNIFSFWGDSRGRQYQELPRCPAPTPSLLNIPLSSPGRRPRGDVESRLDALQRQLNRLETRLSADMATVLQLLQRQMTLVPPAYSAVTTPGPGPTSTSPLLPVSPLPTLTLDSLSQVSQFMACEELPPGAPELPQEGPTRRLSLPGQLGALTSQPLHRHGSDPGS

Structure (SMILES)	IC50 [1] [nM]	IC50 [2] [nM]
CN1CCN(CCCCN2C(=O)CN(/N=C/c3ccc(-c4ccc(Cl)cc4)o3)C2=O)CC1	562	
CN(c1nccc(=O)[nH]1)C1CCN(c2nc3ccccc3n2Cc2ccc(F)cc2)CC1 [MIZOLASTINE]		355
C[C@@H]1CN(c2c(F)c(N)c3c(=O)c(C(=O)O)cn(C4CC4)c3c2F)C[C@H](C)N1 [SPARFLOXACIN]	26300	
